Measurements reported in patent publication EP0863891B1, “(METHYLSULFONYL)PHENYL-2-(5H)-FURANONES AS COX-2 INHIBITORS” (Merck Frosst Canada & Co., priority 1995, dated 1997).
Blank lines part the entries; values can stand above or below the compound they belong to.

Legend:
[1] = target: T1, COX-2 (Homo sapiens, UniProt P35354); experiment: Assay of the activity of purified human COX-2 (TMPD chromogenic assay); format: biochemical; set-up: made in house; host or cells: Sf9 cells
T1 sequence (P35354 18-604): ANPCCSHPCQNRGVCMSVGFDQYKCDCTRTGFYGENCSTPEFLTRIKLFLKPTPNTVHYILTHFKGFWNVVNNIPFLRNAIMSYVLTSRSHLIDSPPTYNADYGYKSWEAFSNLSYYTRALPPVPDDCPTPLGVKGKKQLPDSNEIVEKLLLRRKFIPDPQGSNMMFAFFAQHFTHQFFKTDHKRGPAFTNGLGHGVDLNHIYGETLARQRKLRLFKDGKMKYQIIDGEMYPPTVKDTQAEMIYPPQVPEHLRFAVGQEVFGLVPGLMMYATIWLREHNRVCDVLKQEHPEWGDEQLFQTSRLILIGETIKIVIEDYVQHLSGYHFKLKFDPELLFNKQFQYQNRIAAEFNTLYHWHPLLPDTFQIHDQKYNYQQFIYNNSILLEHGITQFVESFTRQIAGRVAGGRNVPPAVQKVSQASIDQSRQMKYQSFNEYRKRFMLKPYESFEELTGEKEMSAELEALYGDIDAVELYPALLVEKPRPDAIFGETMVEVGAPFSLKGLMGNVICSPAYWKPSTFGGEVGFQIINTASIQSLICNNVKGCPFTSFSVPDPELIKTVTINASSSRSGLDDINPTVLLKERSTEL
Protocol: Assay of the activity of purified human COX-2
The assay mixture (180 µL) contains 100 mM sodium phosphate, pH 6.5, 2 mM genapol X-100, 1 µM hematin, 1 mg/ml gelatin , 80-100 units of purified enzyme (One unit of enzyme is defined as the amount of enzyme required to produce an O.D. change of 0.001/min at 610 nm) and 4 µL of the test compound in DMSO. The mixture is pre-incubated at room temperature (22°C) for 15 minutes prior to initiation of the enzymatic reaction by the addition of 20 µL of a sonicated solution of I mM arachidonic acid (AA) and 1 mM TMPD in assay buffer (without enzyme or hematin). The enzymatic activity is measured by estimation of the initial velocity of TMPD oxidation over the first 36 sec of the reaction. […] IC50 values are derived from 4-parameter least squares non-linear regression analysis of the log-dose vs % inhibition plot.

[2] = system: Male Sprague-Dawley rats; experiment: Rat paw edema assay (carrageenan-induced); format: in vivo; conditions: Rattus norvegicus, po, 3 hr
Protocol: Male Sprague-Dawley rats (150-200 g) are fasted overnight and are given, po, either vehicle (1% methocel or 5% Tween 80) or a test compound. One hr later, a line is drawn using a permanent marker at the level above the ankle in one hind paw to define the area of the paw to be monitored. The paw volume (V0) is measured using a plethysmometer (Ugo-Basile, Italy) based on the principle of water displacement. The animals are then injected subplantarly with 50 µl of 1% carrageenan solution in saline (PMC Corp, Maine) into the paw using an insulin syringe with a 25-gauge needle (i.e. 500 µg carrageenan per paw). Three hr later, the paw volume (V3) is measured and the increases in paw volume (V3 - VO) are calculated. The animals are sacrificed by CO2 asphyxiation and the absence or presence of stomach lesions scored. Data is compared with the vehicle-control values and percent inhibition calculated. All treatment groups are coded to eliminate observer bias.

[3] = target: T1, COX-2; experiment: Human whole blood assay, COX-2 (LPS-induced PGE2 production); format: cell-based; set-up: endogenous in cells; host or cells: fresh heparinized human whole blood from volunteers, induced with LPS; conditions: Table IV; human whole blood, LPS, 24 hours; read-out: COX-2(IC50, µM) HWB
Excerpt: As well, platelets in whole blood contain a large amount of the COX-1 enzyme. Immediately following blood clotting, platelets are activated through a thrombin-mediated mechanism. […] Therefore, the degree of selectivity by the test compound can be determined by measuring the levels of PGE2 after LPS induction (COX-2) and TxB2 following blood clotting (COX-1) in the same assay.
A. COX-2 (LPS-induced PGE2 production)
Fresh blood is collected in heparinized tubes by venipuncture from both male and female volunteers. The subjects have no apparent inflammatory conditions and have not taken any NSAIDs for at least 7 days prior to blood collection. Plasma is immediately obtained from a 2mL blood aliquot to use as blank (basal levels of PGE2).

[4] = target: T2, CHO [hCOX-2] (Homo sapiens, UniProt P35354); experiment: Whole cell assay for COX-2 using CHO transfected cell line (PGE2 synthesis); format: cell-based; conditions: Table IV; CHO[hCOX-2] cells, 10 µM AA; read-out: COX-2(IC50, µM) CHO
T2 construct: expressed in transfected cells; host or cells: CHO cells, stably transfected with pCDNAIII
T2 sequence (P35354 18-604): T1 sequence (P35354 18-604)
Protocol: Chinese hamster ovary (CHO) cell lines which have been stably transfected with an eukaryotic expression vector pCDNAIII containing either the human COX-1 or COX-2 cDNA's are used for the assay. These cell lines are referred to as CHO [hCOX-1] and CHO [hCOX-2], respectively. […] Cells (0.3 x 10^6 cells in 200 µl) are preincubated with 3 µl of the test drug or DMSO vehicle for 15 min at 37°C. […] Cells are then challenged in the presence or absence of drug with the AA/HBSS solution to yield a final concentration of 0.5 µM AA in the CHO[hCOX-1] assay and a final concentration of 10 µM AA in the CHO[hCOX-2] assay. […] The samples are centrifuged at 300 x g at 4°C for 10 min, and an aliquot of the clarified supernatant is appropriately diluted for the determination of PGE2 levels using an enzyme-linked immunoassay for PGE2 (Correlate PGE2 enzyme immunoassay kit, Assay Designs, Inc.). Cyclooxygenase activity in the absence of test compounds is determined as the difference in PGE2 levels of cells challenged with arachidonic acid versus the PGE2 levels in cells mock-challenged with ethanol vehicle. Inhibition of PGE2 synthesis by test compounds is calculated as a percentage of the activity in the presence of drug versus the activity in the positive control samples.
In the assay, inhibition is determined by measuring the amount of prostaglandin E2 (PGE2) synthesized in the presence of arachidonic acid, cyclooxygenase-1 or cyclooxygenase-2 and a putative inhibitor.

[5] = Table IV, purified enzyme, TMPD oxidation, read-out: COX-2(IC50, µM) TMPD

Compound: CC1(C)OC(=O)C(Oc2ccc(Cl)cc2)=C1c1ccc(S(C)(=O)=O)cc1 [Example 6, 3-(4-Chlorophenoxy)-5,5-dimethyl-4-(4-(methylsulfonyl)phenyl)-5H-furan-2-one]
- IC50 [1]: 2 µM
- ED50 ([2]; Table II): 7.65 mg/kg

Compound: CCC(C)OC1=C(c2ccc(S(C)(=O)=O)cc2)C(C)(C)OC1=O (stereo not drawn) [Example 112, 5,5-Dimethyl-3-(2-butoxy)-4-(4-methylsulfonylphenyl)-5H-furan-2-one]
- ED50 ([2]; Table IV): 8 mg/kg

Compound: Cc1ccnc(OC2=C(c3ccc(S(C)(=O)=O)cc3)C(C)(C)OC2=O)c1 [Example 116, 3-(4-Methyl-2-pyridyloxy)-5,5-dimethyl-4-(4-methylsulfonyl)phenyl-5H-furan-2-one]
- IC50 [3]: < 0.41 µM
- IC50 [4]: 0.34 µM
- IC50 [1, 5]: 15 µM

Compound: CC[C@@]1(C)OC(=O)C(Oc2ccc(F)c(F)c2)=C1c1ccc(S(C)(=O)=O)cc1 [Example 117, (5R)-3-(3,4-Difluorophenoxy)-5-ethyl-5-methyl-4-(4-methylsulfonyl)phenyl-5H-furan-2-one]
- ED50 ([2]; Table IV): 1 mg/kg

Compound: CC[C@@]1(C)OC(=O)C(Oc2ccc(Cl)cc2)=C1c1ccc(S(C)(=O)=O)cc1 [Example 118, (5R)-3-(4-Chlorophenoxy)-5-ethyl-5-methyl-4-(4-methylsulfonyl)phenyl-5H-furan-2-one]
- IC50 [3]: 0.05 µM
- IC50 [4]: 0.008 µM
- IC50 [1, 5]: 2.2 µM
- ED50 ([2]; Table IV): 1.4 mg/kg

Compound: Cc1cc(OC2=C(c3ccc(S(C)(=O)=O)cc3)C(C)(C)OC2=O)ncc1Cl [Example 121, 3-(5-Chloro-4-methyl-2-pyridyloxy)-5,5-dimethyl-4-(4-methylsulfonyl)-phenyl-5H-furan-2-one]
- ED50 ([2]; Table IV): 10 mg/kg

Compound: Cc1cc(OC2=C(c3ccc(S(C)(=O)=O)cc3)C(C)(C)OC2=O)ncc1F [Example 122, 3-(5-Fluoro-4-methyl-2-pyridyloxy)-5,5-dimethyl-4-(4-methylsulfonyl)-phenyl-5H-furan-2-one]
- IC50 [3]: 0.38 µM
- IC50 [4]: 0.15 µM
- IC50 [1, 5]: 4.6 µM
- ED50 ([2]; Table IV): 1.2 mg/kg

Compound: CCCC1(C)OC(=O)C(Oc2ccc(F)cc2)=C1c1ccc(S(C)(=O)=O)cc1 (stereo not drawn) [Example 124, 3-(4-Fluorophenoxy)-5-methyl-4-(4-methylsulfonyl)phenyl-5-propyl-5H-furan-2-one]
- IC50 [3]: < 0.41 µM
- IC50 [4]: 0.03 µM
- IC50 [1, 5]: 6.3 µM

Compound: CC[C@@]1(C)OC(=O)C(Oc2ccc(OC)cc2)=C1c1ccc(S(C)(=O)=O)cc1 [Example 129, (5R)-3-(4-Methoxyphenoxy)-5-ethyl-5-methyl-4-(4-methylsulfonyl)-phenyl-5H-furan-2-one]
- IC50 [3]: < 0.41 µM
- IC50 [4]: 0.15 µM
- IC50 [1, 5]: 5.4 µM

Compound: C[C@]1(CC(F)(F)F)OC(=O)C(Oc2ccc(Cl)cn2)=C1c1ccc(S(C)(=O)=O)cc1 [Example 130, (5R)-3-(5-Chloro-2-pyridyloxy)-5-methyl-4-(4-methylsulfonyl)phenyl-5-(2,2,2-trifluoroethyl)-5H-furan-2-one]
- IC50 [3]: < 0.4 µM
- IC50 [4]: 0.03 µM
- IC50 [1, 5]: 7.9 µM

Compound: CC(OC1=C(c2ccc(S(C)(=O)=O)cc2)C(C)(C)OC1=O)C1CC1 (stereo not drawn) [Example 134]
- ED50 ([2]; Table IV): 0.9 mg/kg

- IC50 [3]: 0.54 µM
- IC50 [4]: 0.12 µM
Compound: CC[C@@]1(C)OC(=O)C(OC(C)C)=C1c1ccc(S(C)(=O)=O)cc1 [Example 140, 5(R)-5-ethyl-5-methyl-4-(4-(methylsulfonyl)phenyl)-3-(2-propoxy)-5H-furan-2-one]
- ED50 ([2]; Table IV): 4.6 mg/kg

- IC50 [4]: 0.01 µM
Compound: CC1(C)OC(=O)C(OCC2CC2)=C1c1ccc(S(C)(=O)=O)cc1 [Example 148]
- ED50 ([2]; Table IV): 1.2 mg/kg

Compound: CC(C)COC1=C(c2ccc(S(C)(=O)=O)cc2)C(C)(C)OC1=O [Example 149, 5,5-dimethyl-3-(isobutoxy)-4-(4-(methylsulfonyl)phenyl)-5H-furan-2-one]
- ED50 ([2]; Table IV): 0.9 mg/kg

Compound: CC1(C)OC(=O)C(Oc2ccc3ncsc3c2)=C1c1ccc(S(C)(=O)=O)cc1 [Example 159, 3-(6-benzothiazolyloxy)-5,5-dimethyl-4-(4-(methylsulfonyl)phenyl)-5H-furan-2-one]
- IC50 [3]: 0.26 µM
- IC50 [4]: 0.07 µM
- IC50 [1, 5]: 25 µM

Compound: CC[C@@]1(C)OC(=O)C(Oc2ccc(F)cc2)=C1c1ccc(S(C)(=O)=O)cc1 [Example 163, (5R)-3-(4-Fluorophenoxy)-5-ethyl-5-methyl-4-(4-methylsulfonyl) phenyl-5H-furan-2-one]
- ED50 ([2]; Table IV): 0.64 mg/kg

Compound: C[C@]1(CC(F)(F)F)OC(=O)C(Oc2ccc(F)cn2)=C1c1ccc(S(C)(=O)=O)cc1 [Example 164, (5R)-3-(5-Fluoro-2-pyridyloxy)-5-methyl-4-(4-methylsulfonyl) phenyl-5-(2.2.2-trifluoroethyl)-5H-furan-2-one]
- ED50 ([2]; Table IV): 2 mg/kg

Compound: CC1(C)OC(=O)C(Oc2ncccc2F)=C1c1ccc(S(C)(=O)=O)cc1 [Example 167, 3-(3-Fluoro-2-pyridyloxy)-5,5-dimethyl-4-(4-methylsulfonyl) phenyl-5H-furan-2-one]
- IC50 [3]: 0.21 µM
- IC50 [4]: 0.11 µM
- ED50 ([2]; Table IV): 6.4 mg/kg

Compound: CC1(C)OC(=O)C(OC2CCC2)=C1c1ccc(S(C)(=O)=O)cc1 [Example 174]
- ED50 ([2]; Table IV): 1.6 mg/kg

- IC50 [3]: 2.3 µM
- IC50 [4]: 0.05 µM
- IC50 [1, 5]: 9.5 µM
Compound: CC1(C)OC(=O)C(OC2CCc3ccccc32)=C1c1ccc(S(C)(=O)=O)cc1 (stereo not drawn) [Example 175, 3-(1-Indanyloxy)-5,5-dimethyl-4-(4-(methylsulfonyl)phenyl)-5H-furan-2-one]

Compound: CC1(C)OC(=O)C(OC2Cc3ccccc3C2)=C1c1ccc(S(C)(=O)=O)cc1 [Example 176]
- IC50 [3]: 0.08 µM
- IC50 [4]: 0.03 µM
- IC50 [1, 5]: 2.2 µM

Compound: CC[C@@]1(C)OC(=O)C(Oc2ccc(Br)cn2)=C1c1ccc(S(C)(=O)=O)cc1 [Example 202, (5R)-3-(5-bromo-2-pyridyloxy)-4-(4-methylsulfonylphenyl)-5-ethyl-5-methyl-5H-furan-2-one]
- ED50 ([2]; Table IV): 5.4 mg/kg
